Assay results published in patent publication US10064858B2, “Methods and compositions for treating bacterial infections with iron chelators” (THE UNITED STATES OF AMERICA, AS REPRESENTED BY THE …, priority 2011, dated 2018).
Like-named read-outs stand apart in the source and are kept apart here.

What was measured:
Assay type in all cases: cell-based
[1] = tested on: clinical isolates of A. baumannii; test: MIC for clinical isolates in CAMHB media (Table 3); conditions: Acinetobacter baumannii
Procedure: (§1) Individual MICs were determined following the microdilution method recommended by CLSI in cationic-adjusted Mueller-Hinton Broth (CAMHB), or M9 media. […] Tests were performed in triplicate. MIC of iron chelators were determined for noscomial ESKAPE pathogens.

K. pneumonia [2] = test: MIC in RPMI1640 media (Table 2); conditions: Klebsiella pneumoniae
Procedure: (§2) […] […] Tests were performed in triplicate. MIC of iron chelators were determined for noscomial ESKAPE pathogens.
(§3) This media is closer to the iron levels in the human body. MICs are in ug/mL.

E. coli [3] = test: MIC in RPMI1640 media (Table 2)
Procedure: as §2, §3

P. aeruginosa [4] = test: MIC in RPMI1640 media (Table 2); conditions: Pseudomonas aeruginosa
Procedure: as §2, §3

Acinetobacter baumannii [5] = test: MIC in RPMI1640 media (Table 2)
Procedure: as §2, §3

[6] = tested on: multi-drug resistant bacterial species; test: Time kill method, synergy with rifampin (summary)
Procedure: (§4) Reductions in colony forming units (CFU)/mL were determined over time (time-kill assay) after exposure to VK28 and deferiprone (DFP), the two iron chelators that performed best in MIC assays when compared to controls. To better represent the iron content found in the human body, MIC and time-kill assays were also determined in minimal media and tissue culture media. Time-Kill assays were performed as previously described in G. P. Neupane et al., “In vitro time-kill activities of ciprofloxacin alone and in combination with the iron chelator deferasirox against Vibrio vulnificus,” European Journal of Clinical Microbiology and Infectious Diseases, 407-410 (2010); and R. L. White, et al., “Comparison of Three Different In Vitro Methods of Detecting synergy: Time-Kill, Checkerboard, and E test,” Journal of Antimicrobial Agents and Chemotherapy, 1914-1918 (1996). Initial inocula, for example 1×10^6 CFU/mL or 1×10^7 CFU/mL were challenged with iron chelator with and/or without an antibiotic. Cells were allowed to grow in CAMHB at 37° C. for 24 hours. Time-kill results were analyzed by determining the change in log 10 numbers of CFU/ml at 0, 6, and 24 h, compared to counts at 0 h. Antimicrobials were considered bactericidal at the lowest concentration that reduced the size of the original inoculum by >3 log 10 CFU/ml (99.9%) over each of the time periods and were considered bacteriostatic if the inoculum's size was reduced by 0 to <3 log 10 CFU/ml.

E. coli EC35218 = test: Time-kill assay in CAMHB; conditions: CAMHB
Procedure: as §4
In this example, time-kill assays were performed as described in Example 9 against different multi-drug resistant bacteria, namely E. coli and MRSA.
In this example, time-kill assays were performed as described in Example 9 using ApoL1 as the iron chelator against two different E. coli strains. […] Time-kill results were analyzed by determining the change in log 10 numbers of CFU/mL at 6 and 24 hours.
In this example, time-kill assays were performed as described in Example 9 using Apo6619 as the iron chelator in combination with Rifampin against E. coli 35718. […] Time-kill results were analyzed by determining the change in log 10 numbers of CFU/mL at 0, 5 and 24 hours.

K. pneumonia [7] = test: MIC, CLSI microdilution (Tables 1 and 6); conditions: Klebsiella pneumoniae, Table 1, read-out: MIC of Iron Chelators
Procedure: (§5) The minimal inhibitory concentration (MIC) of non-toxic iron chelators was determined against standard strains of MDR bacteria and clinical isolates according to the guidelines of the Clinical and Laboratory Standards Institute (CLSI).
as §1
(§6) MIC were determined in CAMHB media as described above in Example 8.

E. coli [8] = test: MIC, CLSI microdilution (Tables 1 and 6); conditions: Escherichia coli, Table 1, read-out: MIC of Iron Chelators
Procedure: as §5, §1, §6

P. aeruginosa [9] = test: MIC, CLSI microdilution (Tables 1 and 6); conditions: Pseudomonas aeruginosa, Table 1, read-out: MIC of Iron Chelators
Procedure: as §5, §1, §6

Acinetobacter baumannii [10] = test: MIC, CLSI microdilution (Tables 1 and 6)
Procedure: as §5, §1, §6

S. aureus = test: MIC, CLSI microdilution (Tables 1 and 6); conditions: Staphylococcus aureus, Table 1, read-out: MIC of Iron Chelators
Procedure: as §5, §1, §6

[11] = AB967, read-out: MIC of Iron Chelators
[12] = AB2828, read-out: MIC of Iron Chelators
[13] = AB3340, read-out: MIC of Iron Chelators
[14] = AB3560, read-out: MIC of Iron Chelators
[15] = AB3638, read-out: MIC of Iron Chelators
[16] = AB3785, read-out: MIC of Iron Chelators
[17] = AB3806, read-out: MIC of Iron Chelators
[18] = AB3917, read-out: MIC of Iron Chelators
[19] = AB3927, read-out: MIC of Iron Chelators
[20] = AB4025, read-out: MIC of Iron Chelators
[21] = AB4026, read-out: MIC of Iron Chelators
[22] = AB4027, read-out: MIC of Iron Chelators
[23] = AB4052, read-out: MIC of Iron Chelators
[24] = AB4269, read-out: MIC of Iron Chelators
[25] = AB4448, read-out: MIC of Iron Chelators
[26] = AB4456, read-out: MIC of Iron Chelators
[27] = AB4490, read-out: MIC of Iron Chelators
[28] = AB4498, read-out: MIC of Iron Chelators
[29] = AB4795, read-out: MIC of Iron Chelators
[30] = AB4857, read-out: MIC of Iron Chelators
[31] = AB4878, read-out: MIC of Iron Chelators
[32] = AB4932, read-out: MIC of Iron Chelators
[33] = AB4957, read-out: MIC of Iron Chelators
[34] = AB4991, read-out: MIC of Iron Chelators
[35] = AB5001, read-out: MIC of Iron Chelators
[36] = AB5075, read-out: MIC of Iron Chelators
[37] = AB5197, read-out: MIC of Iron Chelators
[38] = AB5256, read-out: MIC of Iron Chelators
[39] = AB5674, read-out: MIC of Iron Chelators
[40] = AB5711, read-out: MIC of Iron Chelators
[41] = ATCC700603, ATCC 700603, read-out: MIC of Iron Chelators
[42] = BAA2146, BAA-2146, read-out: MIC of Iron Chelators
[43] = Escherichia coli, 35718, read-out: MIC of Iron Chelators
[44] = Escherichia coli, ATCC43888, ATCC 43888 (0157:H7), read-out: MIC of Iron Chelators
[45] = ATCC27853, ATCC 27853, read-out: MIC of Iron Chelators
[46] = PAO1, read-out: MIC of Iron Chelators
[47] = ATCC17978, ATCC 17978, read-out: MIC of Iron Chelators
[48] = ATCC19606, ATCC 19606, read-out: MIC of Iron Chelators
[49] = 1.5 MIC ApoL1 in combination with ¾MIC rifampin
[50] = ATCC43888, ATCC 43888 (0157:H7)
[51] = ATCC17978, ATCC 17978, Table 1, read-out: MIC of Iron Chelators
[52] = ATCC19606, ATCC 19606, Table 1, read-out: MIC of Iron Chelators

Work on Cc1c(O)c(=O)ccn1C [ApoL1, 3-hydroxy-1,2-dimethyl-4(1H)-pyridone] yielded an MIC [1, 11] of 250 µg/mL, an MIC [1, 12] of 500 µg/mL and an MIC [1, 13] of 250 µg/mL. The MIC [1, 14] was 500 µg/mL, the MIC [1, 15] was 250 µg/mL and the MIC [1, 16] was 250 µg/mL. The MIC [1, 17] was 500 µg/mL, the MIC [1, 18] was 250 µg/mL and the MIC [1, 19] was 250 µg/mL. For the same compound, the MIC [1, 20] was 250 µg/mL, the MIC [1, 21] was 250 µg/mL and the MIC [1, 22] was 250 µg/mL. The MIC [1, 23] was 250 µg/mL, the MIC [1, 24] was 250 µg/mL and the MIC [1, 25] was 250 µg/mL. For the same compound, the MIC [1, 26] was 250 µg/mL, the MIC [1, 27] was 250 µg/mL and the MIC [1, 28] was 250 µg/mL. For the same compound, the MIC [1, 29] was 250 µg/mL, the MIC [1, 30] was 250 µg/mL and the MIC [1, 31] was 250 µg/mL. The MIC [1, 32] was 500 µg/mL, the MIC [1, 33] was 125 µg/mL and the MIC [1, 34] was 250 µg/mL. The MIC [1, 35] was 125 µg/mL, the MIC [1, 36] was 250 µg/mL and the MIC [1, 37] was 250 µg/mL. The MIC [1, 38] was 250 µg/mL, the MIC [1, 39] was 250 µg/mL and the MIC [1, 40] was 250 µg/mL. The MIC (K. pneumonia [2]; [41]) was 250 µg/mL, the MIC (K. pneumonia [2]; [42]) was 250 µg/mL and the MIC (E. coli [3]; [43]) was 500 µg/mL. It also gave an MIC (E. coli [3]; [44]) of 250 µg/mL, an MIC (P. aeruginosa [4]; [45]) of 500 µg/mL and an MIC (P. aeruginosa [4]; [46]) of 125 µg/mL. For the same compound, the MIC (Acinetobacter baumannii [5]; [47]) was 64 µg/mL, the MIC (Acinetobacter baumannii [5]; [48]) was 125 µg/mL and the “synergy with rifampin, time kill method” value [6] was “strong synergy”. The “reduction in CFU/mL” value (E. coli EC35218; [49]) was “greater than 3 log 10”, the time-kill effect (E. coli EC35218; [49]) was “bactericidal (considered bactericidal at the lowest concentration that reduced the size of the original inoculum by >3 log 10 CFU/ml (99.9%))” and the time-kill effect (E. coli EC35218; 1.5 MIC Iron Chelator alone) was “bacteriostatic (considered bacteriostatic if the inoculum's size was reduced by 0 to <3 log 10 CFU/ml)”. The MIC (K. pneumonia [7]; ATCC700603, ATCC 700603) was 500 µg/mL, the MIC (K. pneumonia [7]; BAA2146, BAA-2146) was 250 µg/mL and the MIC (E. coli [8]; ATCC35218, ATCC 35218) was 500 µg/mL. For the same compound, the MIC (E. coli [8]; [50]) was 500 µg/mL, the MIC (P. aeruginosa [9]; ATCC27853, ATCC 27853) was > 500 µg/mL and the MIC (P. aeruginosa [9]; PAO1) was 250 µg/mL. The MIC (Acinetobacter baumannii [10]; [51]) was 125 µg/mL, the MIC (Acinetobacter baumannii [10]; [52]) was 125 µg/mL and the MIC (S. aureus; ATCC25923, ATCC 25923) was > 500 µg/mL. The MIC (S. aureus; ATCC 43300 (MRSA)) was > 500 µg/mL.
Work on OCCN1CCN(Cc2ccc(O)c3ncccc23)CC1 [VK28, 5-(4-(2-hydroxyethyl)piperazin-1-ylmethyl)-8-hydroxyquinoline] yielded an MIC [1, 11] of 250 µg/mL, an MIC [1, 12] of 250 µg/mL and an MIC [1, 13] of 250 µg/mL. For the same compound, the MIC [1, 14] was 250 µg/mL, the MIC [1, 15] was 250 µg/mL and the MIC [1, 16] was 250 µg/mL. It also gave an MIC [1, 17] of 500 µg/mL, an MIC [1, 18] of 500 µg/mL and an MIC [1, 19] of 250 µg/mL. For the same compound, the MIC [1, 20] was 250 µg/mL, the MIC [1, 21] was 250 µg/mL and the MIC [1, 22] was 250 µg/mL. It also gave an MIC [1, 23] of 500 µg/mL, an MIC [1, 24] of 250 µg/mL and an MIC [1, 25] of 250 µg/mL. For the same compound, the MIC [1, 26] was 250 µg/mL, the MIC [1, 27] was 250 µg/mL and the MIC [1, 28] was 500 µg/mL. The MIC [1, 29] was 250 µg/mL, the MIC [1, 30] was 500 µg/mL and the MIC [1, 31] was 500 µg/mL. The MIC [1, 32] was 500 µg/mL, the MIC [1, 33] was 500 µg/mL and the MIC [1, 34] was 250 µg/mL. The MIC [1, 35] was 250 µg/mL, the MIC [1, 36] was 250 µg/mL and the MIC [1, 37] was 250 µg/mL. The MIC [1, 38] was 250 µg/mL, the MIC [1, 39] was 250 µg/mL and the MIC [1, 40] was 250 µg/mL. The MIC (K. pneumonia [2]; [41]) was 16 µg/mL, the MIC (K. pneumonia [2]; [42]) was 16 µg/mL and the MIC (E. coli [3]; [43]) was 32 µg/mL. For the same compound, the MIC (E. coli [3]; [44]) was 8 µg/mL, the MIC (P. aeruginosa [4]; [45]) was 16 µg/mL and the MIC (P. aeruginosa [4]; [46]) was 16 µg/mL. The MIC (Acinetobacter baumannii [5]; [47]) was 32 µg/mL, the MIC (Acinetobacter baumannii [5]; [48]) was 8 µg/mL and the “synergy with rifampin, time kill method” value [6] was “strong synergy”. The time-kill effect (E. coli EC35218; 1×MIC and 2×MIC VK28) was “bacteriostatic (considered bacteriostatic if the inoculum's size was reduced by 0 to <3 log 10 CFU/ml)”, the MIC (K. pneumonia [7]; ATCC700603, ATCC 700603) was > 500 µg/mL and the MIC (K. pneumonia [7]; BAA2146, BAA-2146) was > 500 µg/mL. The MIC (E. coli [8]; ATCC35218, ATCC 35218) was > 500 µg/mL, the MIC (E. coli [8]; [50]) was > 500 µg/mL and the MIC (P. aeruginosa [9]; ATCC27853, ATCC 27853) was > 500 µg/mL. The MIC (P. aeruginosa [9]; PAO1) was > 500 µg/mL, the MIC (Acinetobacter baumannii [10]; [51]) was 125 µg/mL and the MIC (Acinetobacter baumannii [10]; [52]) was 125 µg/mL. It also gave an MIC (S. aureus; ATCC25923, ATCC 25923) of 250 µg/mL and an MIC (S. aureus; ATCC 43300 (MRSA)) of 250 µg/mL.
